Data from ChEMBL document CHEMBL1201862, “PubChem BioAssay data set” (2004).
Values belong to the compound of their own block, whether it stands above or below them. Active and inactive are the calls of the source.

Tests used:
Type in all cases: functional
[1] = molecular target: DNA dC->dU-editing enzyme APOBEC-3A (Homo sapiens, UniProt P31941); assay: APOBEC3A DNA deaminase inhibitors, dose response, biochemical (AID 504722)
[2] = molecular target: DNA dC->dU-editing enzyme APOBEC-3G (Homo sapiens, UniProt Q9HC16); assay: Dose Response confirmation of small molecule APOBEC3G DNA Deaminase Inhibitors via a fluorescence-based single-stranded DNA deaminase assay. [Related pubchem assays (depositor defined):AID493012, AID493028]
[3] = molecular target: Lysosomal acid glucosylceramidase (Homo sapiens, UniProt P04062); assay: Dose response cell-based high throughput screening assay to identify enhancers of beta-glucosidase activity. [Related pubchem assays: 784 ]
[4] = molecular target: T1, Tyrosine-protein phosphatase non-receptor type 7 (Homo sapiens, UniProt P35236); assay: SAR analysis of chemical inhibitors of HePTP using a Fluorescent assay - Set 2. [Related pubchem assays (depositor defined):AID1059, AID1077, AID1661, AID2085, AID521]
T1 sequence (P35236 whole entry): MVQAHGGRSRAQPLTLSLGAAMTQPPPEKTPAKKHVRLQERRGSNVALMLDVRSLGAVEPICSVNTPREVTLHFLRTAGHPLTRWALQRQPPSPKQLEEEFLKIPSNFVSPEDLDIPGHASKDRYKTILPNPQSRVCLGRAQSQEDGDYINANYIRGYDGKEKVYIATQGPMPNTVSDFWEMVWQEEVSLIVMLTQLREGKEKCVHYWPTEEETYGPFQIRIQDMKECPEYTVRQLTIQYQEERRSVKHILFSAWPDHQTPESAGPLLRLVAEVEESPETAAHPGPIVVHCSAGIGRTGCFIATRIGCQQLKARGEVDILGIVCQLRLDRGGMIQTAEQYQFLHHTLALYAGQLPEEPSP

[5] = molecular target: Dual specificity protein phosphatase 3 (Homo sapiens, UniProt P51452); assay: SAR VHR1 Fluorescent Assay for In Vitro dose response studies Set 2. [Related pubchem assays (depositor defined):AID1654, AID1661, AID1878]
HEK293 = assay: Fluorescence-based counterscreen for potentiators or agonists of NPY-Y2: cell-based high-throughput dose response assay to identify inhibitors of cyclic nucleotide gated ion channel (CNGC) activity. In this assay, the parental HEK293 cell line transfected with a cyclic-nucleotide gated ion channel (CNGC)-based cAMP sensor is used to measure inhibition of isoproterenol-induced CNGC activity by test compound.; settings: Homo sapiens;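 further: stimulus is 1 µM isoproterenol at EC100 plus PDE inhibitor Ro 20-1724 at 25 µM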
[6] = molecular target: T2, Neuropeptide Y receptor type 2 (Homo sapiens, UniProt P49146); assay: Fluorescence-based cell-based high-throughput dose response assay for agonists of NPY-Y2. [Related pubchem assays: 1703 (Screening assay (CNGC inhibitors).), 1359 (Screening assay (NPY-Y2 potentiators or agonists).), 1304 (Screening assay (NPY-Y1 potentiators or agonists).), 1710 (Screening assay (NPY-Y2 agonists).), 1791 (Summary AID.)]
T2 sequence (P49146 whole entry): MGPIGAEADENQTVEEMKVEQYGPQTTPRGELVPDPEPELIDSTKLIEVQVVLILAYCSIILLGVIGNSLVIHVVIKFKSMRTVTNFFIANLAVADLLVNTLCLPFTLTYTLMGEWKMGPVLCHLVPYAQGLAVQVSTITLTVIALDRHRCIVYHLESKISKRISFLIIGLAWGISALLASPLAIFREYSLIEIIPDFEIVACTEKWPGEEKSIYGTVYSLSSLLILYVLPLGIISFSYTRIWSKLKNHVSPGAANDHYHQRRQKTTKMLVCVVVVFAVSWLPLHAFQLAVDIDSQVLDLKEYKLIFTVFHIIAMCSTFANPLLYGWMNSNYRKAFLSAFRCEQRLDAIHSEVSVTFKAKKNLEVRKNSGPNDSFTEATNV

[7] = THP-1 cell cytotoxicity, dose response, cytotoxicity control for Vif-APOBEC3G degradation inhibitor project, THP-1 cells (AID 1117359); settings: Human immunodeficiency virus 1, THP-1
[8] = molecular target: T3, Neuropeptide Y receptor type 1 (Homo sapiens, UniProt P25929); assay: Fluorescence-based counterscreen for agonists of NPY-Y2: cell-based high-throughput dose response assay for agonists of NPY-Y1.
T3 sequence (P25929 whole entry): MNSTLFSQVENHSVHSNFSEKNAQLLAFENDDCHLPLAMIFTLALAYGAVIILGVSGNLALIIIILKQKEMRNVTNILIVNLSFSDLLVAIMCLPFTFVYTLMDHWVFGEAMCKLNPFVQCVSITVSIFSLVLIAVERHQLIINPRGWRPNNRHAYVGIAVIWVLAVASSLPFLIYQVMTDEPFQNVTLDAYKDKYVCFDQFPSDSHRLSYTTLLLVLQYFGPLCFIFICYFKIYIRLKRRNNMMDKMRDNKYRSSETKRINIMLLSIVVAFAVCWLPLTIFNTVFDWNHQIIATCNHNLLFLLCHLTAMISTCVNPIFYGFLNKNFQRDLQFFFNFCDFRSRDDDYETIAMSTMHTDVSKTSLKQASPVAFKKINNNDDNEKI

Chain of Lysosomal acid glucosylceramidase (P04062 whole entry): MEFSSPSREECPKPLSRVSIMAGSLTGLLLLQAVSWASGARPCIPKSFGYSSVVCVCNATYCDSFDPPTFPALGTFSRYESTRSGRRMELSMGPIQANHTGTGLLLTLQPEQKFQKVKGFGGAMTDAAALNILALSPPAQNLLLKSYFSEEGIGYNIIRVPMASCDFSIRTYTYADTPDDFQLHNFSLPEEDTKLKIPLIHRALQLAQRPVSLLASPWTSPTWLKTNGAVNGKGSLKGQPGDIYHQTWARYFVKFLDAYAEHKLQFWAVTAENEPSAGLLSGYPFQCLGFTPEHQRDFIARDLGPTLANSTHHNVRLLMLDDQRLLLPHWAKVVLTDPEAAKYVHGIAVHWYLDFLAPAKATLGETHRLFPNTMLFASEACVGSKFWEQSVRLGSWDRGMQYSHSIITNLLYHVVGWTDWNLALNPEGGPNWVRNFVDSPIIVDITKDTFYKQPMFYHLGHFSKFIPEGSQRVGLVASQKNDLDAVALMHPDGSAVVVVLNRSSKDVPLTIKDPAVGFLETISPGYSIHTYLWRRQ
Chain of DNA dC->dU-editing enzyme APOBEC-3G (Q9HC16 whole entry): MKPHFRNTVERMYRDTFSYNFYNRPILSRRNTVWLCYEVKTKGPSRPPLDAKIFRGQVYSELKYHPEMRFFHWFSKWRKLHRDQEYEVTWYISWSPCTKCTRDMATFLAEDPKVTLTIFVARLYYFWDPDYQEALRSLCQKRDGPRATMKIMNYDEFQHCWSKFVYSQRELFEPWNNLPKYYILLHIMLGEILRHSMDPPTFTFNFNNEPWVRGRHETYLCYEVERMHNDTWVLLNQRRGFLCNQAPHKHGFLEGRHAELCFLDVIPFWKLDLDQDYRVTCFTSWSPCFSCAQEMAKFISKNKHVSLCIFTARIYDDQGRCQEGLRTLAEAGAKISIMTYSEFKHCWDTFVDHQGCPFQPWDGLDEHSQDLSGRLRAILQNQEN
Chain of DNA dC->dU-editing enzyme APOBEC-3A (P31941 whole entry): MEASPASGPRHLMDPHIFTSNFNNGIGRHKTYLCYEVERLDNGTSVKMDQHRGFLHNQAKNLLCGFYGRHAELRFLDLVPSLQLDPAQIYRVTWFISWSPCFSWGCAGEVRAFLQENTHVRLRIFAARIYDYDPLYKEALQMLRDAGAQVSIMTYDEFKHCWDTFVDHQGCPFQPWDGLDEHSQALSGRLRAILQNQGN
Chain of Dual specificity protein phosphatase 3 (P51452 whole entry): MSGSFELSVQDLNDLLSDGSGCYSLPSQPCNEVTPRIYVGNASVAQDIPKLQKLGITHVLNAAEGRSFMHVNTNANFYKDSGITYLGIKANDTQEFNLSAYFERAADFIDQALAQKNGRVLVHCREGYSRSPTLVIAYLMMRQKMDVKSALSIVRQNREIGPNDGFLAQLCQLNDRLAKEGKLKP

Compound: N#Cc1c(S)nc2c(c1-c1cccnc1)CCCC2
- IC50 [1]: > 100 µM (inactive)
- IC50 [2]: 2.72 µM (active)

- EC50 [3]: > 50 µM (not active)
Compound: Cc1ccc(C)c(N(C)S(=O)(=O)c2cccc3nsnc23)c1

- EC50 [3]: > 50 µM (not active)
Compound: COc1cccc(NC(=O)C2C3C=CC4(O3)C2C(=O)N(C(C)C)C4C(=O)NC2CCCCC2C)c1 (stereo not given)

Compound: NS(=O)(=O)c1ccc(NC(=S)N2CCN(Cc3ccccc3)CC2)cc1
- IC50 [4]: 49.7 µM (active)
- IC50 [5]: 38.1 µM (active)

Compound: O=C(N/N=C\c1ccc(Cl)cc1)C1=NOC2COC3(CCN(c4ccc([N+](=O)[O-])cc4)CC3)OCC12 (stereo not given)
- EC50 (HEK293): > 35.4 µM (not active)
- EC50 [6]: > 35.4 µM (not active)
- CC50 [7]: > 40 µM (active)
- EC50 [8]: > 35.4 µM (not active)
